This is an account of results in patent US9145411B2, “Substituted amino-pyrimidine derivatives” (Asana Biosciences, LLC, priority 2012, dated 2015).

pIC50: −log10 of the molar value. Bounds are passed on as bounds.

In assay [1] the target is PI3 kinase isoform β (Homo sapiens, UniProt P42338). As to the kind of experiment: PI3 Kinase TR-FRET assay, isoform β. Format: biochemical. The conditions noted are these: read-out: inhibition of PI3 kinase isoform β, IC50. As to the method: (§1) The ability of compounds of the invention to inhibit PI3K activity was determined in a homogeneous TR-FRET assay using a PI3K assay kit (Millipore, USA; cat #33-016) according to manufacturer's instructions. PI3-Kinases (isoforms α, β, γ and δ) catalyze the phosphorylation of phosphatidylinositol, PIP2 to PIP3 in the presence of ATP and Mg^2+. The PIP3 product is detected by displacement of biotin-PIP3 from an energy transfer complex consisting of Europium labeled anti-GST monoclonal antibody, a GST-tagged PH domain, biotinylated PIP3 and Streptavidin-APC. Excitation of Europium in the complex results in an energy transfer to the APC and a fluorescence emission at 665 nm. The PIP3 product displaces biotin-PIP3 from the complex resulting in a loss of energy transfer and thus a decrease in signal.
Chain of PI3 kinase isoform β (P42338 whole entry, the tested form may be a part, canonical isoform): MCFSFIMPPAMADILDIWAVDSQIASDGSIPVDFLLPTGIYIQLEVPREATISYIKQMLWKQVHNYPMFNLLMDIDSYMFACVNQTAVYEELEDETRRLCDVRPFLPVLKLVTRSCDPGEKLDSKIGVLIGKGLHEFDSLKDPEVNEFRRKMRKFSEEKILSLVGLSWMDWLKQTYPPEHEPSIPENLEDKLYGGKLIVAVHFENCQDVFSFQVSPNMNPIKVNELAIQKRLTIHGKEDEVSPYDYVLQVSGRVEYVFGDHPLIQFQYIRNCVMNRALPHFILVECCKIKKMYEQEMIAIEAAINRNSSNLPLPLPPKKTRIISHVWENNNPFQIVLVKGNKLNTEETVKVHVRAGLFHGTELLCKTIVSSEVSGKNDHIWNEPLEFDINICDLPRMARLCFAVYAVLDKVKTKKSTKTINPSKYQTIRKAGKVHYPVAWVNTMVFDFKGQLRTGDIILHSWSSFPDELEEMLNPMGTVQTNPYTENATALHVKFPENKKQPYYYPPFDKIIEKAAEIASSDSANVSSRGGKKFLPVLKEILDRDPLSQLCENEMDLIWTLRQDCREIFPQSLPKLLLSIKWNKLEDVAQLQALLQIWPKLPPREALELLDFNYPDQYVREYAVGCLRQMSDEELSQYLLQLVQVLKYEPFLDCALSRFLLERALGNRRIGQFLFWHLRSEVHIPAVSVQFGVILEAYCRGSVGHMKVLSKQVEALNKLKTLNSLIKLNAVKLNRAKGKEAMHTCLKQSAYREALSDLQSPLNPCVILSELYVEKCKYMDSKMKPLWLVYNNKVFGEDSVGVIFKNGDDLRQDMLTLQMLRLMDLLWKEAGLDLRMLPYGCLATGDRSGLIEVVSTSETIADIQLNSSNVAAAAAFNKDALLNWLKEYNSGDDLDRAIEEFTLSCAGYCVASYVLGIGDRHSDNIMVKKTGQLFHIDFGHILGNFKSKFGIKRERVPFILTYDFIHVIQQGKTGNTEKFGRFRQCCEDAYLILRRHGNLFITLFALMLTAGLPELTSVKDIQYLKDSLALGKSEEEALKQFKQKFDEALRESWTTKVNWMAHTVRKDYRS
Chain of PI3 kinase isoform β (P27986 whole entry partner, the tested form may be a part, canonical isoform): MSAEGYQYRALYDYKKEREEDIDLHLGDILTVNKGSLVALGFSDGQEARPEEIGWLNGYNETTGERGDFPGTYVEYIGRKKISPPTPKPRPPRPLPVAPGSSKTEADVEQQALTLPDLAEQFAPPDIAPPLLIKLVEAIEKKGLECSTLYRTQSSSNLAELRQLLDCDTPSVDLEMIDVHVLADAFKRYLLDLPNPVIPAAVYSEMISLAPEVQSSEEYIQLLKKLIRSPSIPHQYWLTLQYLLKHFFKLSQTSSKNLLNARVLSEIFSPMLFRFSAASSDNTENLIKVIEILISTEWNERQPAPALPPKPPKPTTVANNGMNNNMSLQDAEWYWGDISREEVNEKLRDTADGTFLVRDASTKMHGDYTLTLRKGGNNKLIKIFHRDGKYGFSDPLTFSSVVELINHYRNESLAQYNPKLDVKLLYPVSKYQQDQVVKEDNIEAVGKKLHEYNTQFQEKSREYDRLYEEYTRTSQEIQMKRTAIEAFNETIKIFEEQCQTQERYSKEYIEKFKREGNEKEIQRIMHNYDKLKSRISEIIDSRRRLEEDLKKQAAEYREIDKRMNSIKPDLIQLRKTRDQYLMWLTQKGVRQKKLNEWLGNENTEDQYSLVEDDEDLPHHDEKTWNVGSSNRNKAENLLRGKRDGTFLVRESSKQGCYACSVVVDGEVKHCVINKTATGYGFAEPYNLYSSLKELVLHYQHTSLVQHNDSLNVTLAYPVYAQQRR
To test for the ability of compounds to inhibit the activity of PI3Kα (wild-type), exemplary compounds of formula (I) were dissolved in DMSO and directly distributed into 384-well plates at a volume of 0.5 μL. […] Fluorescence was measured at 615 and 665 nm upon excitation at 340 nm in a Victor™ V5 fluorometer (Perkin Elmer, USA). The fluorescence emission ratio at 665 to 615 nm, proportional to the kinase activity, was plotted against the compound concentration to generate dose-response curves and IC50 values were determined using GraphPad Prism® 5 software. […]

For assay [2], the target named is PI3 kinase isoform γ (Homo sapiens, UniProt P48736). Description: PI3 Kinase TR-FRET assay, isoform γ. The conditions noted are these: read-out: inhibition of PI3 kinase isoform γ, IC50. It is filed as biochemical. How it is done: as §1
Chain of PI3 kinase isoform γ (P48736 whole entry, canonical isoform): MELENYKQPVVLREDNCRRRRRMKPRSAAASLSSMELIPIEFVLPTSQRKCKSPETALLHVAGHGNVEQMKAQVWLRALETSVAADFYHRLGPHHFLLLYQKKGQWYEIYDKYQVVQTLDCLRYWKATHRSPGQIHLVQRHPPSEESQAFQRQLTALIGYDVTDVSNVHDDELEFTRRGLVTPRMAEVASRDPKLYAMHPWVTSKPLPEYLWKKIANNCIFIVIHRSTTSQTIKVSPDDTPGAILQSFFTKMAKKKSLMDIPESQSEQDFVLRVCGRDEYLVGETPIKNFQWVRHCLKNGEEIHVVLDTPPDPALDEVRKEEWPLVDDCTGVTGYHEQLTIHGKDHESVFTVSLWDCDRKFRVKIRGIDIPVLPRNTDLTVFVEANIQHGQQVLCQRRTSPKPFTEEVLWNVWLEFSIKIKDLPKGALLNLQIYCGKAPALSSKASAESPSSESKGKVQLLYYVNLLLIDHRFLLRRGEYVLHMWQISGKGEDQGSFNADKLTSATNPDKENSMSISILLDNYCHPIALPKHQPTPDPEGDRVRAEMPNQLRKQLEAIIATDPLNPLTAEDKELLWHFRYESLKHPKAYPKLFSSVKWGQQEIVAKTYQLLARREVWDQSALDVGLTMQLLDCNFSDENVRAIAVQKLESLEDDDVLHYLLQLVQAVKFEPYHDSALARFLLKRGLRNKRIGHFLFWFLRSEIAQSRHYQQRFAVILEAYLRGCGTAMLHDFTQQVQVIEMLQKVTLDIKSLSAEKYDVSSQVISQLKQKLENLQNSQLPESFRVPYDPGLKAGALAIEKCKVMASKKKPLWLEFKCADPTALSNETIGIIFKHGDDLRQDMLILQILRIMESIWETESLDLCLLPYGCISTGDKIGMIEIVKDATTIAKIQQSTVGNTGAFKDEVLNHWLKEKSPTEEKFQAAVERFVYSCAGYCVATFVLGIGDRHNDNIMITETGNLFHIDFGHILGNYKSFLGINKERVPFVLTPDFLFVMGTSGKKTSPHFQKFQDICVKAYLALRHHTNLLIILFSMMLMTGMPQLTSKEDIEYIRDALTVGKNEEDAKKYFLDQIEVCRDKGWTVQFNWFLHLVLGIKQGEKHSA
To test for the ability of compounds to inhibit the activity of PI3Kα (wild-type), exemplary compounds of formula (I) were dissolved in DMSO and directly distributed into 384-well plates at a volume of 0.5 μL. 14.5 μL of P110/P85α/PIP2 mixture in buffer (obtained from the Millipore kit) containing MgCl2 (40 mM) and DTT (5 mM) was added to compound wells and incubated for 60 minutes at room temperature. P110/P85α was expressed in SF9 insect cells and purified nickel column extraction. Five ng of wild-type P110/P85α was used in the assay. The kinase reaction was started by the addition of ATP. The assay concentrations of both PIP2 and ATP were 10 μM. The reaction mixture was incubated for 30 minutes at room temperature and was terminated by the addition of stop mix and detection mix. Fluorescence was measured at 615 and 665 nm upon excitation at 340 nm in a Victor™ V5 fluorometer (Perkin Elmer, USA). The fluorescence emission ratio at 665 to 615 nm, proportional to the kinase activity, was plotted against the compound concentration to generate dose-response curves and IC50 values were determined using GraphPad Prism® 5 software.
The activity of PI3 kinase isoforms β, γ and δ were assayed in a similar manner to the assay protocol described above for PI3Kα, by substituting the appropriate p110/p85 isoform for the p110α/p85α. Compounds of formula (I) caused inhibition of PI3 kinase isoforms β, γ and δ as determined by these assays. For example, the compounds of Examples 3 and 21 each caused inhibition of PI3 kinase isoform β with IC50 values<500 nM. The compounds of Examples 3, 7, 21, 47, 48 and 49 each caused inhibition of PI3 kinase isoform γ with IC50 values<500 nM. The compounds of Example 3, 7, 47, 48, and 49 caused inhibition of PI3 kinase isoform δ with IC50 values<1 μM.

The test system of assay [3] is T47D cells. As to the kind of experiment: XTT assay for cell viability, T47D cells. It is filed as cell-based. The conditions noted are these: Homo sapiens, read-out: inhibition of T47D cell proliferation, IC50. As to the method: Using a commercial kit from Sigma Aldrich (Catalog #X34251) and following its protocol, PC3 cells in the log phase of growth were employed and seeded at an optimal density of 1000 cell/well on to 96 well plates and incubated for 24 hours followed by the addition of compounds of formula (I) in serial dilutions. Compound dilutions were made in DMSO. The cells were incubated with the compounds of formula (I) for 96 hours and XTT tetrazolium dye (Sigma, USA) was subsequently added and incubated at 37° C. After the color formation, absorbance was measured at 465 nm in a Spectramax® Gemini spectrophotometer. EC50 values were calculated using a sigmoidal dose response curve fit in GraphPad Prism® v5 software. The tested compounds of formula (I) which caused inhibition of PC3 cell proliferation as determined by this assay protocol are shown in Table 2.
XTT assays for cell viability were also determined in U87MG, BT474 cells and T47D cells, in a similar manner to the protocol described above. The compounds cause inhibition of U87MG, BT474 and T47D cell proliferation as determined by these assays. For example, the compounds of Examples 3 and 7 caused inhibition of U87MG, BT474 and T47D cell proliferation with IC50 values<600 nM.
On the technique in general: Tetrazolium assays rely on reduction of a dye to a coloured formazan, in cell work by metabolically active cells.

The subject of assay [4] is PC3 cells. As to the kind of experiment: In vivo efficacy study (tumor growth suppression), PC3 xenograft. The conditions noted are these: athymic male mice, after 14 days of dosing at 50 mg/kg qd po. As to the method: PC3 cells were cultured at 37° C. in a 5% CO2 incubator using Hams F12 K medium. Five million (5×10^6) cells were implanted subcutaneously to the right flank of athymic male mice (Harlan, age: 6-7 weeks, weight: about 20 g). Tumor bearing mice were randomized when the tumor volume reached about 100 mm^3 Ten mice were used per group. Compounds of formula (I) were typically formulated using HPCD in PBS, pH 7.4 or in 10% Ethanol/40% Solutol/50% 50 mM aq. methanesulfonic acid and dosed orally (dose volume, 10 mL/kg). Solutions of the compounds were prepared immediately before dosing the animals. A vehicle control and a reference compound were included along with test compounds.
The tumor size was measured on alternate days using Vernier® calipers. Assuming tumors to be ellipsoid, the tumor volume was calculated using the formula: V=(D×d^2)/2 • where: • V (mm^3) is tumor volume • D is longest diameter in mm • d is shortest diameter in mm.
Changes in tumor volume (Δ volumes) for each treated (T) and control (C) group were calculated by subtracting the mean tumor volume on the first day of treatment (starting day) from the mean tumor volume on the specified observation day. […]
Percentage tumor growth inhibition was calculated as [100−% T/C]. Percentage body weight change was calculated as [(Body weight on specified observation day−Body weight on starting day)/Body weight on starting day]×100. […]

On to `CC(=O)Nc1cccc(-c2cnc3c(N4CCOCC4)nc(-c4cnc(N)nc4)nc3c2)c1` [Example 3, N-(3-(2-(2-Aminopyrimidin-5-yl)-4-morpholinopyrido[3,2-d]pyrimidin-7-yl)-phenyl)acetamide], for which the pIC50 is above 6.30 in assay [1], above 6.30 in assay [2] and above 6.22 in assay [3]. Besides, the “tumor growth inhibition relative to vehicle control group” value in assay [4] is reported as “more than 40%”.
On to `Nc1ncc(-c2nc(N3CCOCC3)c3ncc(-c4cccc(NC(=O)C5CC5)c4)cc3n2)cn1` [Example 7, N-(3-(2-(2-Aminopyrimidin-5-yl)-4-morpholinopyrido[3,2-d]pyrimidin-7-yl)-phenyl)cyclopropanecarboxamide], for which the results for the pIC50 in assay [2] and in assay [3] were above 6.30 and above 6.22, respectively.
